Test results: ChEMBL document CHEMBL4000244, “Probing A-form DNA: A fluorescent aminosugar probe and dual recognition by anthraquinone-neomycin conjugates” (Bioorg Med Chem, 2017)

Tests used:
[1] = Binding affinity to 5'-CCCCCCCG-3' DNA hairpin assessed as change in fluorescence intensity at 1 uM after 45 mins by fluorescence quenching analysis relative to control
[2] = Binding affinity to 5'-GGCCCCGC-3' DNA hairpin assessed as change in fluorescence intensity at 1 uM after 45 mins by fluorescence quenching analysis relative to control
[3] = Binding affinity to 5'-GGCCCGGG-3' DNA hairpin assessed as change in fluorescence intensity at 1 uM after 45 mins by fluorescence quenching analysis relative to control
[4] = Binding affinity to 5'-CGGCCCCC-3' DNA hairpin assessed as change in fluorescence intensity at 1 uM after 45 mins by fluorescence quenching analysis relative to control
[5] = Binding affinity to 5'-CGGGGGGC-3' DNA hairpin assessed as change in fluorescence intensity at 1 uM after 45 mins by fluorescence quenching analysis relative to control
[6] = Binding affinity to 5'-CCCCGGGG-3' DNA hairpin assessed as change in fluorescence intensity at 1 uM after 45 mins by fluorescence quenching analysis relative to control
[7] = Binding affinity to 5'-CCCCCGCG-3' DNA hairpin assessed as change in fluorescence intensity at 1 uM after 45 mins by fluorescence quenching analysis relative to control
[8] = Binding affinity to 5'-GCGGGGGC-3' DNA hairpin assessed as change in fluorescence intensity at 1 uM after 45 mins by fluorescence quenching analysis relative to control
[9] = Binding affinity to 5'-GGCCCGGC-3' DNA hairpin assessed as change in fluorescence intensity at 1 uM after 45 mins by fluorescence quenching analysis relative to control
[10] = Binding affinity to 5'-GCGGCCCC-3' DNA hairpin assessed as change in fluorescence intensity at 1 uM after 45 mins by fluorescence quenching analysis relative to control
[11] = Binding affinity to 5'-GCCGGCCC-3' DNA hairpin assessed as change in fluorescence intensity at 1 uM after 45 mins by fluorescence quenching analysis relative to control
[12] = Binding affinity to 5'-GGCGCCCC-3' DNA hairpin assessed as change in fluorescence intensity at 1 uM after 45 mins by fluorescence quenching analysis relative to control
[13] = Binding affinity to 5'-CGCCCCGC-3' DNA hairpin assessed as change in fluorescence intensity at 1 uM after 45 mins by fluorescence quenching analysis relative to control
[14] = Binding affinity to 5'-CGGGGGCC-3' DNA hairpin assessed as change in fluorescence intensity at 1 uM after 45 mins by fluorescence quenching analysis relative to control
[15] = Binding affinity to 5'-CCGGCCCC-3' DNA hairpin assessed as change in fluorescence intensity at 1 uM after 45 mins by fluorescence quenching analysis relative to control
[16] = Binding affinity to 5'-GGGCCGCG-3' DNA hairpin assessed as change in fluorescence intensity at 1 uM after 45 mins by fluorescence quenching analysis relative to control
[17] = Binding affinity to 5'-GGGCCGCC-3' DNA hairpin assessed as change in fluorescence intensity at 1 uM after 45 mins by fluorescence quenching analysis relative to control
[18] = Binding affinity to 5'-GCGGGGCC-3' DNA hairpin assessed as change in fluorescence intensity at 1 uM after 45 mins by fluorescence quenching analysis relative to control
[19] = Binding affinity to 5'-GCCCGCGC-3' DNA hairpin assessed as change in fluorescence intensity at 1 uM after 45 mins by fluorescence quenching analysis relative to control
[20] = Binding affinity to 5'-CCCCGGGC-3' DNA hairpin assessed as change in fluorescence intensity at 1 uM after 45 mins by fluorescence quenching analysis relative to control
[21] = Binding affinity to 5'-GGCGGGGC-3' DNA hairpin assessed as change in fluorescence intensity at 1 uM after 45 mins by fluorescence quenching analysis relative to control
[22] = Binding affinity to 5'-GCCCGCCG-3' DNA hairpin assessed as change in fluorescence intensity at 1 uM after 45 mins by fluorescence quenching analysis relative to control
[23] = Binding affinity to 5'-CGCGGGCC-3' DNA hairpin assessed as change in fluorescence intensity at 1 uM after 45 mins by fluorescence quenching analysis relative to control
[24] = Binding affinity to 5'-CGCCCGCG-3' DNA hairpin assessed as change in fluorescence intensity at 1 uM after 45 mins by fluorescence quenching analysis relative to control
[25] = Binding affinity to 5'-GCGGCGCG-3' DNA hairpin assessed as change in fluorescence intensity at 1 uM after 45 mins by fluorescence quenching analysis relative to control
[26] = Binding affinity to 5'-GCGCCGGG-3' DNA hairpin assessed as change in fluorescence intensity at 1 uM after 45 mins by fluorescence quenching analysis relative to control
[27] = Binding affinity to 5'-GCGGCGGC-3' DNA hairpin assessed as change in fluorescence intensity at 1 uM after 45 mins by fluorescence quenching analysis relative to control
[28] = Binding affinity to 5'-CGCCGGCC-3' DNA hairpin assessed as change in fluorescence intensity at 1 uM after 45 mins by fluorescence quenching analysis relative to control
[29] = Binding affinity to 5'-GCCGGGCG-3' DNA hairpin assessed as change in fluorescence intensity at 1 uM after 45 mins by fluorescence quenching analysis relative to control
[30] = Binding affinity to 5'-CCCCGGCG-3' DNA hairpin assessed as change in fluorescence intensity at 1 uM after 45 mins by fluorescence quenching analysis relative to control
[31] = Binding affinity to 5'-CGCGGCGC-3' DNA hairpin assessed as change in fluorescence intensity at 1 uM after 45 mins by fluorescence quenching analysis relative to control
[32] = Binding affinity to 5'-GCCGGCGG-3' DNA hairpin assessed as change in fluorescence intensity at 1 uM after 45 mins by fluorescence quenching analysis relative to control
[33] = Binding affinity to 5'-CGGCCCGG-3' DNA hairpin assessed as change in fluorescence intensity at 1 uM after 45 mins by fluorescence quenching analysis relative to control
[34] = Binding affinity to 5'-GCCGCGGC-3' DNA hairpin assessed as change in fluorescence intensity at 1 uM after 45 mins by fluorescence quenching analysis relative to control
[35] = Binding affinity to 5'-CCGCGCGC-3' DNA hairpin assessed as change in fluorescence intensity at 1 uM after 45 mins by fluorescence quenching analysis relative to control
[36] = Binding affinity to 5'-GGGCGCGC-3' DNA hairpin assessed as change in fluorescence intensity at 1 uM after 45 mins by fluorescence quenching analysis relative to control

NCC1O[C@H](O[C@H]2[C@@H](O)[C@H](O[C@@H]3[C@@H](O)[C@H](N)C[C@H](N)[C@H]3O[C@H]3O[C@H](CN)[C@@H](O)[C@H](O)[C@H]3N)O[C@@H]2CSCCNC(=O)CCSCC(=O)Nc2ccc(-c3c4ccc(=O)cc-4oc4cc(O)ccc34)c(C(=O)O)c2)[C@H](N)[C@@H](O)[C@@H]1O (stereo partly specified)
Activity [1]: 19.9%
Activity [2]: 21.3%
Activity [3]: 26.7%
Activity [4]: 29.6%
Activity [5]: 32.2%
Activity [6]: 32.7%
Activity [7]: 35.4%
Activity [8]: 36.9%
Activity [9]: 37%
Activity [10]: 37.2%
Activity [11]: 37.6%
Activity [12]: 37.8%
Activity [13]: 38%
Activity [14]: 38.1%
Activity [15]: 39.4%
Activity [16]: 39.6%
Activity [17]: 40%
Activity [18]: 40.4%
Activity [19]: 40.4%
Activity [20]: 43%
Activity [21]: 43.2%
Activity [22]: 43.8%
Activity [23]: 44.3%
Activity [24]: 45.7%
Activity [25]: 45.8%
Activity [26]: 46.9%
Activity [27]: 47.7%
Activity [28]: 48.6%
Activity [29]: 49.7%
Activity [30]: 50%
Activity [31]: 52.5%
Activity [32]: 53.8%
Activity [33]: 54.4%
Activity [34]: 56.3%
Activity [35]: 57.5%
Activity [36]: 58.3%
